# Results published in patent publication US10000483B2, “Bone marrow on X chromosome kinase (BMX) inhibitors and uses thereof” (Dana-Farber Cancer Institute, Inc., priority 2012, dated 2018).
# What was measured:
# BLK [1] = target: T1, BLK (Homo sapiens (Human), UniProt P51451); experiment: Invitrogen Select Screening in vitro kinase assay; assay type: biochemical
# Text: (§1) The in vitro activity of compounds of Formula (I) and (II) in inhibiting BMX and other kinases were obtained using an Invitrogen Select Screening assay as known in the art. The IC50 values determined from this assay are shown below.
# TEC = TEC (Homo sapiens (Human), UniProt P42680); experiment: Invitrogen Select Screening in vitro kinase assay; assay type: biochemical
# Text: as §1
# mTOR [2] = target: T2, mTOR (Homo sapiens (Human), UniProt P42345); experiment: Invitrogen Select Screening in vitro kinase assay; assay type: biochemical
# Text: as §1
# BMX [3] = target: T3, BMX (Homo sapiens (Human), UniProt P51813); experiment: DiscoverX binding assay
# T3 sequence (P51813 whole entry): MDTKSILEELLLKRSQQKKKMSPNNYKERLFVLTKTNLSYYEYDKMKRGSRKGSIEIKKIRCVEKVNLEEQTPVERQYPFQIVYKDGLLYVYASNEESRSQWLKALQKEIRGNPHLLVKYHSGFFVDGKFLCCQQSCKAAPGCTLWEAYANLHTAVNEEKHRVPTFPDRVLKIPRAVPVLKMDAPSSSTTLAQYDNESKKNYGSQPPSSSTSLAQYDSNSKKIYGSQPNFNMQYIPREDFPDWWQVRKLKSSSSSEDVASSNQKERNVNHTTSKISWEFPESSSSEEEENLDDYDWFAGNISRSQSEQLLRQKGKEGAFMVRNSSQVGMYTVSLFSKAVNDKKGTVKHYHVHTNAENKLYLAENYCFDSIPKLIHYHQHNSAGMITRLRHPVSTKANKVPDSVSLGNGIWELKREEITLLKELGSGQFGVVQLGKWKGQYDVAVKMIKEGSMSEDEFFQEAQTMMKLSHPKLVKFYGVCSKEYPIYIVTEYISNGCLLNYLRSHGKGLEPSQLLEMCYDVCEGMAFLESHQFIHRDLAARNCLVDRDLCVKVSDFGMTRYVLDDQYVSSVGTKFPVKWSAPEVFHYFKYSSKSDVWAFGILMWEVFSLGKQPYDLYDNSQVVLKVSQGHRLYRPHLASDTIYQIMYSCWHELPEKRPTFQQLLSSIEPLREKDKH
# Text: (§2) Screening hits are identified by measuring the amount of protein captured in test versus control samples by using a quantitative, precise, and ultra-sensitive qPCR method that detects the associated DNA label.
# BLK [4] = target: T1, BLK; experiment: DiscoverX binding assay
# Text: as §2
# EGFR(T790M) = EGFR(T790M) (Homo sapiens (Human), UniProt P00533, T790M); experiment: DiscoverX binding assay
# Text: as §2
# ITK = ITK (Homo sapiens (Human), UniProt Q08881); experiment: DiscoverX binding assay
# Text: as §2
# mTOR [5] = target: T2, mTOR; experiment: DiscoverX binding assay; conditions: read-out: % inhibition at 1 uM, MTOR
# Text: as §2
# CLK1 = CLK1 (Homo sapiens (Human), UniProt P49759); experiment: DiscoverX binding assay; conditions: read-out: % inhibition at 1 uM, CLK1
# Text: as §2
# CLK2 = CLK2 (Homo sapiens (Human), UniProt P49760); experiment: DiscoverX binding assay; conditions: read-out: % inhibition at 1 uM, CLK2
# Text: as §2
# PIK3CG = PIK3CG (Homo sapiens (Human), UniProt P48736); experiment: Kinase panel at 1 uM (Table 9); assay type: binding; conditions: read-out: % inhibition at 1 uM, PIK3CG
# Text: as §2
# DYRK1A = DYRK1A (Homo sapiens (Human), UniProt Q13627); experiment: Kinase panel at 1 uM (Table 9); assay type: binding; conditions: read-out: % inhibition at 1 uM, DYRK1A
# Text: as §2
# MKNK2 = MKNK2 (Homo sapiens (Human), UniProt Q9HBH9); experiment: Kinase panel at 1 uM (Table 9); assay type: binding; conditions: read-out: % inhibition at 1 uM, MKNK2
# Chain of MKNK2 (Q9HBH9 whole entry): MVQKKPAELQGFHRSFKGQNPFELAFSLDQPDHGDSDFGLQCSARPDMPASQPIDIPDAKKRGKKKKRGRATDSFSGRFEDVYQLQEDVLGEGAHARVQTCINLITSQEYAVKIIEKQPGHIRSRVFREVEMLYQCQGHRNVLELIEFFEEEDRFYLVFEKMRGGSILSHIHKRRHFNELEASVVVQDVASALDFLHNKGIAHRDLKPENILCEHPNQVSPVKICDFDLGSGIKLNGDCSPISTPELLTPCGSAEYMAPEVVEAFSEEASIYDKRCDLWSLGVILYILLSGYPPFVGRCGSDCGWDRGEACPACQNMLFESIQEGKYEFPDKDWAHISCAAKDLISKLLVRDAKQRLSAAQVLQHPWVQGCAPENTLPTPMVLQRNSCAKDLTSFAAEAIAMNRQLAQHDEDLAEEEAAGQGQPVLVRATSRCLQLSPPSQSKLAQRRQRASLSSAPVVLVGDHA
# Text: as §2
# PIK3CA(I800L) = PIK3CA(I800L) (Homo sapiens (Human), UniProt P42336, I800L); experiment: Kinase panel at 1 uM (Table 9); assay type: binding; conditions: read-out: % inhibition at 1 uM, PIK3CA(I800L)
# Chain of PIK3CA(I800L) (P42336 whole entry I800L): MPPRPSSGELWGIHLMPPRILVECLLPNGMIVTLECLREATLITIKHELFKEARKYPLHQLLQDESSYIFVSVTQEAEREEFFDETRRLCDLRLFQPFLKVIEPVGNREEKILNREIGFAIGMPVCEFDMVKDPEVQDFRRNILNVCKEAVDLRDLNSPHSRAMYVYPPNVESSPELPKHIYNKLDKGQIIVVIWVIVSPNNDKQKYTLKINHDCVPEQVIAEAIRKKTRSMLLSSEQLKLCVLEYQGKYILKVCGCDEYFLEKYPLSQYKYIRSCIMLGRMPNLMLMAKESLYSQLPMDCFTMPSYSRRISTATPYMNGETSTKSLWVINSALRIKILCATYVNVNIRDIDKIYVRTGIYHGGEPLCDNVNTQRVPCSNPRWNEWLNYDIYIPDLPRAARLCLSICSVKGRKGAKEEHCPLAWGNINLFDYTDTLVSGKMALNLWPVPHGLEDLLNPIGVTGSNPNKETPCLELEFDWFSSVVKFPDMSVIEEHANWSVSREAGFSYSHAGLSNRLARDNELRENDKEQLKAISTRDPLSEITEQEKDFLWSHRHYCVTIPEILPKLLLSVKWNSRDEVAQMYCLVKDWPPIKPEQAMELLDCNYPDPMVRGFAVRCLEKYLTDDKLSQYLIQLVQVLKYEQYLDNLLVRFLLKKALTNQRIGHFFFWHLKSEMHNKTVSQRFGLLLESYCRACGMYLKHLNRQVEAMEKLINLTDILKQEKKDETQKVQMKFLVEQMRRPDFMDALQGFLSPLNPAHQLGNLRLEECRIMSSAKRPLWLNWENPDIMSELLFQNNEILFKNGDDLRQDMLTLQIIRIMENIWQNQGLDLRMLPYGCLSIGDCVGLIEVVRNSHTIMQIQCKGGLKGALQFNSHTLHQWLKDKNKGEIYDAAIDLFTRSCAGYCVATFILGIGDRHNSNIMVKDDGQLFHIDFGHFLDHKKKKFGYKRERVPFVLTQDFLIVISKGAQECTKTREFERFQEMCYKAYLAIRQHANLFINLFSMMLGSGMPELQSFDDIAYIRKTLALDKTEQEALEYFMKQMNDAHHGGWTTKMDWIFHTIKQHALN
# Text: as §2
# DYRK2 = DYRK2 (Homo sapiens (Human), UniProt Q92630); experiment: Kinase panel at 1 uM (Table 9); assay type: binding; conditions: read-out: % inhibition at 1 uM, DYRK2
# Chain of DYRK2 (Q92630 whole entry): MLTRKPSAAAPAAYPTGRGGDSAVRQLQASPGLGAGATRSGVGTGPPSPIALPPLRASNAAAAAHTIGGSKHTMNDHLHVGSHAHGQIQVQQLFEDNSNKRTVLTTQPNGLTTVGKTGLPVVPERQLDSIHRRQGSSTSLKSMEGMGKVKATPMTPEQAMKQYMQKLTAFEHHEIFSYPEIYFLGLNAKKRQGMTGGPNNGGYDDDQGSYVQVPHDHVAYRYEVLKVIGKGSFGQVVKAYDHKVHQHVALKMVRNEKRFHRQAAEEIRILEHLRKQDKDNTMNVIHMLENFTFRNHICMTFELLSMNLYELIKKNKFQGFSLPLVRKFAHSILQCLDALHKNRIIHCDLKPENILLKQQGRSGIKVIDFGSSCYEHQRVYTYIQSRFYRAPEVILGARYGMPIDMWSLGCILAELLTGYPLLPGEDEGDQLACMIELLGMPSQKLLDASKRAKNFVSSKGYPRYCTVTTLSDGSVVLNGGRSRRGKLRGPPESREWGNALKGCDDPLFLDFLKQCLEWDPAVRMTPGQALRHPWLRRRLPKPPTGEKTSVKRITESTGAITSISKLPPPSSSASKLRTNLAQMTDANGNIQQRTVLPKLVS
# Text: as §2
# IRAK3 = IRAK3 (Homo sapiens (Human), UniProt Q9Y616); experiment: Kinase panel at 1 uM (Table 9); assay type: binding; conditions: read-out: % inhibition at 1 uM, IRAK3
# Text: as §2
# YSK4 = YSK4 (Homo sapiens (Human), UniProt Q56UN5); experiment: Kinase panel at 1 uM (Table 9); assay type: binding; conditions: read-out: % inhibition at 1 uM, YSK4
# Chain of YSK4 (Q56UN5 whole entry): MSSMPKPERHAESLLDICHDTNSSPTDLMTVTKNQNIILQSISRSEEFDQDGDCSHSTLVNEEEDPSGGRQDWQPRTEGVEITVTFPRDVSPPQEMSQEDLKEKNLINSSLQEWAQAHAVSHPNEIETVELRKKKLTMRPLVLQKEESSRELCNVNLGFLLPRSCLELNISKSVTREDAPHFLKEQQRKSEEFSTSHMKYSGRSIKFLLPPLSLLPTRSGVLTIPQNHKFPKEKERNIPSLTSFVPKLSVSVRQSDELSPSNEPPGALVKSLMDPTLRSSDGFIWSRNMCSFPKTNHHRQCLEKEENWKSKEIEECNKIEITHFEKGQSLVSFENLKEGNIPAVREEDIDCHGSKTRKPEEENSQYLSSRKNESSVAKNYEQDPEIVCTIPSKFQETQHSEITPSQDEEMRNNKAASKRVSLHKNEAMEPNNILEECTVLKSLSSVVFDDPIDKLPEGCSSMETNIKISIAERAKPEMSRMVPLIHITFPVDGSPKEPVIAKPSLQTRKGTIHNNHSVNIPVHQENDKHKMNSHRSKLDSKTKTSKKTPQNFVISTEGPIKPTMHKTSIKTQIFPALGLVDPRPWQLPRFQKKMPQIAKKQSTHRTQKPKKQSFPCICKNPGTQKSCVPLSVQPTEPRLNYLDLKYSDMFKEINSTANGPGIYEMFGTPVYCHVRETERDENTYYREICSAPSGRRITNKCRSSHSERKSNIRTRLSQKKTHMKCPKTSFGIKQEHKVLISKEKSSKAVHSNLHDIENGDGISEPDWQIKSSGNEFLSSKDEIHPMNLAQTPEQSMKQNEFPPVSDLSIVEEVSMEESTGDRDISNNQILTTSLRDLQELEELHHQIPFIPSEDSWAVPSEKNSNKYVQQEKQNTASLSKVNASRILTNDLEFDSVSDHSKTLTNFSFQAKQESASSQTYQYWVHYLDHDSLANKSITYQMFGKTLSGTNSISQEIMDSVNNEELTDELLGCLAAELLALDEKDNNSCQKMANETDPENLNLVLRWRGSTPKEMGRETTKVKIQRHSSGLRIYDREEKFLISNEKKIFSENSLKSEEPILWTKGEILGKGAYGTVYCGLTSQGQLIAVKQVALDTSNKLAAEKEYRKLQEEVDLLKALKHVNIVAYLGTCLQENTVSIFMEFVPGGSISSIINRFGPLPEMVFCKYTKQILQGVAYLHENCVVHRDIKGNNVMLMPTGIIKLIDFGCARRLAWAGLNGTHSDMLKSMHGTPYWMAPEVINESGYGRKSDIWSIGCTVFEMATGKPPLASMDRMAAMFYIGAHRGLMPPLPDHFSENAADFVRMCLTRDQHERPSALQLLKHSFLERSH
# Text: as §2
# JNK3 = JNK3 (Homo sapiens (Human), UniProt P53779); experiment: Kinase panel at 1 uM (Table 9); assay type: binding; conditions: read-out: % inhibition at 1 uM, JNK3
# Text: as §2
# JNK1 = JNK1 (Homo sapiens (Human), UniProt P45983); experiment: Kinase panel at 1 uM (Table 9); assay type: binding; conditions: read-out: % inhibition at 1 uM, JNK1
# Text: as §2
# PIK4CB = PIK4CB (Homo sapiens (Human), UniProt Q9UBF8); experiment: Kinase panel at 1 uM (Table 9); assay type: binding; conditions: read-out: % inhibition at 1 uM, PIK4CB
# Text: as §2
# FLT3(ITD) = experiment: Kinase panel at 1 uM (Table 9); assay type: binding
# Text: as §2
# PIP5K2C = PIP5K2C (Homo sapiens (Human), UniProt Q8TBX8); experiment: Kinase panel at 1 uM (Table 9); assay type: binding; conditions: read-out: % inhibition at 1 uM, PIP5K2C
# Chain of PIP5K2C (Q8TBX8 whole entry): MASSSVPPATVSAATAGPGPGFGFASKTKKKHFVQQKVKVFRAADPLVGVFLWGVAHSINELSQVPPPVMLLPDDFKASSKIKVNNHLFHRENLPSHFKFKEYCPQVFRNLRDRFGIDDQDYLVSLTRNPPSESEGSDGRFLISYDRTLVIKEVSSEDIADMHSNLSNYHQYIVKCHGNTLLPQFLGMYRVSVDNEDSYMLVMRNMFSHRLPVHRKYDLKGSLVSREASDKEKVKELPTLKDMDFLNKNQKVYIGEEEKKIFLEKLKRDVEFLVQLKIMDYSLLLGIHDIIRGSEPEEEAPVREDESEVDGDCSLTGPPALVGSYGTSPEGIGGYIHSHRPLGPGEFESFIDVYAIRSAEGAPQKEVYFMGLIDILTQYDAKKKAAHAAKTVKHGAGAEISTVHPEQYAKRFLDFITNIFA
# Text: as §2
# BCWM.1 cells = experiment: Cell proliferation analysis for WM and lymphoma cell lines (CellTiter-Glo); assay type: cell-based; conditions: BCWM1; 72 hours
# Protocol: (§3) Various cell lines were used including Waldenström's macroglobulinemia (WM) cell lines (BCWM.1, MWCL-1, RPCI-WM1) and B-cell lymphoma cell lines (OCI-Ly3, Ramos, OCI-Ly19). Cells were seeded into 384 well plates with the EL406 Combination Washer Dispenser (BioTek Instruments, Inc.) and inhibitor compounds were injected into the cells culture media with the JANUS Automated Workstation (PerkinElmer Inc.).
# MWCL-1 cells = experiment: as above; assay type: cell-based; conditions: 72 hours
# Protocol: as §3
# RV1 xenograft = RV1 xenograft growth; conditions: over 2 weeks, in vivo treatment; FIG. 19
# BMX [6] = target: T3, BMX; experiment: BMX protein levels in RV-1 cells; assay type: cell-based; conditions: 72 h treatment, 5 μM
# Text: Moreover, the depletion could be rescued upon stable overexpression of the C496S mutant BMX.
# [7] = tested on: RV-1 cells expressing wild-type BMX or C496S mutant; conditions: FIG. 16
# WT-Ba/F3 cells = experiment: cells; conditions: Mus musculus, BaF3, read-out: GI50, WT-Ba/F3
# [8] = tested on: TEL-BMX transformed Ba/F3 cells; experiment: cells; conditions: Mus musculus, BaF3, read-out: GI50, TEL-BMX
# [9] = tested on: TEL-JAK1 transformed Ba/F3 cells; experiment: cells; conditions: Mus musculus, BaF3, read-out: GI50, TEL-JAK1
# [10] = tested on: TEL-JAK3 transformed Ba/F3 cells; experiment: cells; conditions: Mus musculus, BaF3, read-out: GI50, TEL-JAK3 (+IL-3)
# [11] = tested on: TYK2E957D transformed Ba/F3 cells; experiment: cells; conditions: Mus musculus, BaF3, read-out: GI50, TYK2E957D
# [12] = tested on: TEL-BLK transformed Ba/F3 cells; experiment: cells; conditions: Mus musculus, BaF3, read-out: GI50, TEL-BLK
# VACP cells = experiment: cells; conditions: read-out: GI50, VACP
# Protocol: Data were normalized to control group (DMSO) and represented by the mean of at least two independent measurement with standard error <20%. GI50 were calculated using Prism 5.0 (GraphPad Software, San Diego, Calif.).
# T1 sequence (P51451 whole entry): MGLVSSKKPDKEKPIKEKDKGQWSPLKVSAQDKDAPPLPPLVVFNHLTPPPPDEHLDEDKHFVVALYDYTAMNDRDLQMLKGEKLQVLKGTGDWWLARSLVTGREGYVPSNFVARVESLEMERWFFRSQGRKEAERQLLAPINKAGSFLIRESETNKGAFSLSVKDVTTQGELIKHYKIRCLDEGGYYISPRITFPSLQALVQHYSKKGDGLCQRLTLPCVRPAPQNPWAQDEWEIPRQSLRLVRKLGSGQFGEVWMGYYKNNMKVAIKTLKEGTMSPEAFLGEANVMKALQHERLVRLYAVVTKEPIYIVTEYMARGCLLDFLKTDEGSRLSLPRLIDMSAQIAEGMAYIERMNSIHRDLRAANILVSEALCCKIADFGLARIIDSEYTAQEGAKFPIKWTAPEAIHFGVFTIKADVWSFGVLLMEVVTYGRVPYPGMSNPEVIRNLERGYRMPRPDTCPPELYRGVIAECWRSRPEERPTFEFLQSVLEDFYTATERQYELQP
smiles,measurement,setting,value
C=CC(=O)Nc1cc(-n2c(=O)ccc3cnc4ccc(-c5ccc(NS(C)(=O)=O)cc5)cc4c32)ccc1C [I-14],IC50,BLK [1],377 nM
same,IC50,TEC,653 nM
same,IC50,mTOR [2],325 nM
same,"Percent Control, BMX",BMX [3],29%
same,"Percent Control, BLK",BLK [4]; DiscoverX binding,40%
same,inhibition at 1 µM,"BLK [4]; read-out: % inhibition at 1 uM, BLK",40%
same,"Percent Control, EGFR(T790M)",EGFR(T790M); DiscoverX binding,2.1%
same,inhibition at 1 µM,"EGFR(T790M); read-out: % inhibition at 1 uM, EGFR(T790M)",11%
same,"Percent Control, ITK",ITK,52%
same,inhibition at 1 µM,mTOR [5],45%
same,inhibition at 1 µM,CLK1,95%
same,inhibition at 1 µM,CLK2,100%
same,inhibition at 1 µM,PIK3CG,2.8%
same,inhibition at 1 µM,DYRK1A,100%
same,inhibition at 1 µM,MKNK2,100%
same,inhibition at 1 µM,PIK3CA(I800L),46%
same,inhibition at 1 µM,DYRK2,100%
same,inhibition at 1 µM,IRAK3,73%
same,inhibition at 1 µM,YSK4,100%
same,inhibition at 1 µM,JNK3,100%
same,inhibition at 1 µM,JNK1,93%
same,inhibition at 1 µM,PIK4CB,79%
same,"% inhibition at 1 uM, FLT3(ITD)",FLT3(ITD),99%
same,inhibition at 1 µM,PIP5K2C,5.6%
same,EC50,BCWM.1 cells,1100 nM
same,EC50,MWCL-1 cells,1390 nM
same,RV1 xenograft growth,RV1 xenograft,decreased
same,BMX protein levels in RV-1 cells,BMX [6],significantly reduced
same,growth inhibition of cells expressing wild-type BMX versus C496S mutant,[7],more potently inhibits growth of cells expressing the wild-type BMX than the C496S mutant
same,GI50,WT-Ba/F3 cells,> 10000 nM
same,GI50,[8],25 nM
same,GI50,[9],4920 nM
same,GI50,[10],7770 nM
same,GI50,[11],6090 nM
same,GI50,[12],3640 nM
same,GI50,VACP cells,2460 nM
